Source: ChEMBL document CHEMBL1201862, “PubChem BioAssay data set” (2004)
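Following 48 hours of exposure in 96-well plates, responses at five concentrations were used to interpolate endpoints linearly. GI50 is the concentration that inhibits growth by half.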 The source made the active and inactive calls. No stated cut-off is given here; in the data, active = GI50 up to about 1.1 µM and inactive = higher.

Assays:
Assay in all cases: growth of human tumour cells (NCI), 48 h
SF-295 = system: SF-295
SF-539 = system: SF-539
SR = system: SR
MCF7 = system: MCF7
SNB-75 = system: SNB-75
MOLT-4 = system: MOLT-4
HOP-92 = system: HOP-92
OVCAR-8 = system: OVCAR-8
KM12 = system: KM12
SNB-19 = system: SNB-19
NCI-H460 = system: NCI-H460
OVCAR-5 = system: OVCAR-5
K562 = system: K562
SK-OV-3 = system: SK-OV-3
MDA-MB-231 = system: MDA-MB-231
MDA-MB-435 = system: MDA-MB-435
COLO 205 = system: COLO 205
UACC-257 = system: UACC-257
A498 = system: A498
RPMI-8226 = system: RPMI-8226

Measured: GI50

COC1=N[C@H](C(C)C)C(OC)=N[C@H]1Cc1ccc(C[C@@H]2N=C(OC)[C@@H](C(C)C)N=C2OC)s1
inactive: SF-295 38.2 µM | SF-539 > 100 µM | SR 19.5 µM | MCF7 20.3 µM | SNB-75 > 100 µM | MOLT-4 20 µM | HOP-92 > 100 µM | OVCAR-8 76.9 µM | KM12 38.6 µM | SNB-19 54.5 µM | NCI-H460 58.3 µM | OVCAR-5 17.5 µM | K562 32.4 µM | SK-OV-3 > 100 µM | MDA-MB-231 27.6 µM | MDA-MB-435 33.1 µM | COLO 205 22.1 µM | UACC-257 26.3 µM

O=C(NCCNCCO)N/N=C/c1ccc([N+](=O)[O-])cc1
inactive: SF-295 > 100 µM | SF-539 > 100 µM | SR > 100 µM | MCF7 48.9 µM | SNB-75 21.7 µM | MOLT-4 > 100 µM | OVCAR-8 > 100 µM | KM12 > 100 µM | SNB-19 > 100 µM | NCI-H460 > 100 µM | OVCAR-5 > 100 µM | K562 > 100 µM | SK-OV-3 > 100 µM | MDA-MB-231 > 100 µM | A498 47.4 µM | MDA-MB-435 > 100 µM | COLO 205 > 100 µM | UACC-257 > 100 µM

Cc1cc(-c2ccc(Cl)cc2)c(C#N)c(=S)n1C1OC(CO)C(O)C(O)C1O (stereo not given)
inactive: SF-295 > 100 µM | SF-539 > 100 µM | SR > 100 µM | MCF7 > 100 µM | SNB-75 20.1 µM | MOLT-4 > 100 µM | OVCAR-8 > 100 µM | KM12 > 100 µM | SNB-19 > 100 µM | NCI-H460 > 100 µM | OVCAR-5 > 100 µM | SK-OV-3 > 100 µM | MDA-MB-231 > 100 µM | A498 > 100 µM | MDA-MB-435 > 100 µM | COLO 205 > 100 µM | UACC-257 > 100 µM

Oc1ccc(-c2nc(-c3cccnc3)c(-c3ccc(Cl)cc3)[nH]2)cc1O
inactive: SF-295 16.2 µM | SR > 100 µM | MCF7 11.5 µM | SNB-75 6.05 µM | MOLT-4 3.78 µM | OVCAR-8 11.9 µM | KM12 8.97 µM | SNB-19 13 µM | OVCAR-5 18.7 µM | K562 > 100 µM | SK-OV-3 12.4 µM | MDA-MB-231 17.3 µM | MDA-MB-435 13.8 µM | COLO 205 13.9 µM | UACC-257 15.1 µM | RPMI-8226 > 100 µM

CCOC(=O)C(C)NC(=O)C(C)NC(=O)C(C)NC(=O)C(C)NC(=O)C(C)NC(=O)OCc1ccccc1 (stereo not given)
inactive: SF-295 > 100 µM | SF-539 > 100 µM | SR > 100 µM | MCF7 > 100 µM | SNB-75 78.3 µM | MOLT-4 > 100 µM | OVCAR-8 > 100 µM | KM12 > 100 µM | SNB-19 > 100 µM | NCI-H460 > 100 µM | OVCAR-5 > 100 µM | K562 > 100 µM | SK-OV-3 > 100 µM | MDA-MB-231 > 100 µM | MDA-MB-435 > 100 µM | COLO 205 > 100 µM | UACC-257 > 100 µM | RPMI-8226 > 100 µM

CCOC(=O)CSc1[nH]c2nc(C)nc(Cl)c2c1C#N
inactive: SF-295 > 10 µM | SR > 10 µM | MCF7 > 10 µM | SNB-75 > 10 µM | MOLT-4 > 10 µM | HOP-92 > 10 µM | OVCAR-8 > 10 µM | KM12 > 10 µM | K562 > 10 µM | SK-OV-3 > 10 µM | MDA-MB-231 > 10 µM | MDA-MB-435 > 10 µM | COLO 205 > 10 µM | UACC-257 > 10 µM | RPMI-8226 > 10 µM

O=C1NC(N2CCCC(CO)C2)=N/C1=C\c1ccccc1 (stereo not given)
inactive: SF-295 > 100 µM | SF-539 > 100 µM | SR > 100 µM | MCF7 > 100 µM | SNB-75 > 100 µM | MOLT-4 > 100 µM | HOP-92 > 100 µM | OVCAR-8 > 100 µM | KM12 > 100 µM | SNB-19 > 100 µM | OVCAR-5 > 100 µM | SK-OV-3 > 100 µM | MDA-MB-231 > 100 µM | MDA-MB-435 > 100 µM | COLO 205 > 100 µM | UACC-257 > 100 µM | RPMI-8226 > 100 µM

COC([C@@H](OC(=O)c1ccccc1)[C@H](OC(=O)c1ccccc1)C(O)COC(=O)c1ccccc1)n1cc(C)c(=O)[nH]c1=O (stereo not given in full)
inactive: SF-295 24.4 µM | SR 29.7 µM | MCF7 13 µM | SNB-75 22.5 µM | MOLT-4 3.6 µM | OVCAR-8 39.1 µM | SNB-19 22.2 µM | NCI-H460 27.3 µM | OVCAR-5 19.1 µM | K562 13.7 µM | SK-OV-3 40.6 µM | MDA-MB-231 40.6 µM | MDA-MB-435 20 µM | COLO 205 22 µM | UACC-257 34.2 µM | RPMI-8226 > 100 µM
